This is an account of results in patent publication US12226449B2, “Materials and methods for the prevention of rheumatoid arthritis” (The University of Toledo, priority 2018, dated 2025).

“Also recorded” adds a separate entry of the source.

Holding throughout (format): cell-based
Assay [1] concerns human PBMCs. As to the kind of experiment: PBMC proliferation, MTT assay. Conditions: for effect on 14-3-3ζ-induced PBMC proliferation: inhibitor present during 14-3-3ζ incubation, BV02 5 nM, TJU103 1 μg/ml. As for the experimental part: Blood from healthy donors was collected as per the approved IRB protocol. The protocol for isolation of PBMCs was previously reported. In short, whole blood was diluted with an equal volume of RPMI before layering on Ficoll-Paque PLUS in a 15 mL tube. Tubes were then centrifuged for 25 minutes with the brakes off at 950 g. PBMCs were collected from the layer between the plasma and Ficoll liquid. PBMCs were then washed twice with RPMI, with 7 min spins at 350×g to pellet the cells. Finally, cells were resuspended in complete RPMI before counting and plating. […] Phytohemagglutinin (PHA) was used as a positive control. 10 μl MTT was added at a concentration of 5 mg/mL, and the plate was further incubated at 37° C. in the dark for 3 hours. Supernatant was then removed, and 100 μL DMSO was added for another hour before reading the absorbance at 570 nm using FLUOstar Omega microplate reader (BMG Labtech). For T cell differentiation, PBMCs were incubated with 1 μg/ml of 14-3-3ζ for 7 days followed by either the cellular staining for FACS analysis or ELISPOT as per manufacture's protocol.
A general note: Tetrazolium dyes change colour on reduction, which living cells bring about.

The test system of assay [2] is human PBMCs. As to the kind of experiment: T cell polarization of PBMCs by flow cytometry (CD4, CD366, IL-17, CD8, CD69). To be noted: drug present during 14-3-3ζ incubation, prednisolone, prednisone, TJU103 1 μg/ml, cyclophosphamide 0.1 μg/ml, BV02 5 nM. How it is done: Cells were plated with 14-3-3ζ protein in a 96-well plate for 14 days at 37° C. in complete RPMI culture medium. Phytohemagglutinin (PHA) was used as a positive control. 10 μl MTT was added at a concentration of 5 mg/mL, and the plate was further incubated at 37° C. in the dark for 3 hours. Supernatant was then removed, and 100 μL DMSO was added for another hour before reading the absorbance at 570 nm using FLUOstar Omega microplate reader (BMG Labtech). For T cell differentiation, PBMCs were incubated with 1 μg/ml of 14-3-3ζ for 7 days followed by either the cellular staining for FACS analysis or ELISPOT as per manufacture's protocol. […] PBMCs incubated with 14-3-3ζ for 7 days at 37° C. were fixed in 2% paraformaldehyde for an hour, and washed with PBS. […] For surface staining, cells were stained in 50 μL PBS with 5 μl per million cells antibody for 30 minutes in the dark on ice. For intracellular staining, cells were permeabilized with Triton for 10-15 min. After staining, cells were washed with PBS and resuspended in 1 mL PBS for analysis. The following antibodies from Biolegend Inc. were used: […] Cells were sorted at FACSCanto II system (BD Biosciences) and analyzed using FlowJo software (version 10). A gate was created around an initial population of cells in the FSC-SSC plot, and this population of cells was further analyzed for CD4, CD366, and IL-17 expression. Unstained and isotype labelled cells were used as a control for setting the gates.

For assay [3], the system named is human PBMCs. As to the kind of experiment: ELISPOT assay of IFN-γ and IL-17 secreting cells. Conditions: for effect on 14-3-3ζ-induced IFN-γ secreting cells / effect on 14-3-3ζ-induced IL-17 secreting cells: drug present during 14-3-3ζ incubation. As for the experimental part: Cells were plated with 14-3-3ζ protein in a 96-well plate for 14 days at 37° C. in complete RPMI culture medium. Phytohemagglutinin (PHA) was used as a positive control. 10 μl MTT was added at a concentration of 5 mg/mL, and the plate was further incubated at 37° C. in the dark for 3 hours. Supernatant was then removed, and 100 μL DMSO was added for another hour before reading the absorbance at 570 nm using FLUOstar Omega microplate reader (BMG Labtech). For T cell differentiation, PBMCs were incubated with 1 μg/ml of 14-3-3ζ for 7 days followed by either the cellular staining for FACS analysis or ELISPOT as per manufacture's protocol. For testing the effect of drugs, prednisolone, prednisone, as well as TJU103, were used at 1 μg/ml concentration and cyclophosphamide was used at 0.1 μg/ml concentration.
The protocol was adopted from Immunospot kit from Cellular Technology Limited. In short, PBMCs incubated with 14-3-3ζ for 7 days were plated on the antibody coated ELISPOT plates. About 100,000 cells/well were added and incubated for 2 days at 37° C. followed by the developing protocol. Plates were read with a Quantihub ELISPOT plate reader and manually counted.

The subject of assay [4] is human PBMCs. As to the kind of experiment: ELISA of secreted (accumulated) cytokines of PBMCs. To be noted: drug present during 14-3-3ζ incubation.
Assay [5] relates to human PBMCs. As to the kind of experiment: ELISPOT assay of IFN-γ and IL-17 secreting cells. To be noted: PBMC treated with protein for 7 d.

On to `Cc1c(N2C(=O)c3ccc(C(=O)O)cc3C2=O)c(=O)n(-c2ccccc2)n1C` [BV02], for which, in assay [1] (BV02 present), the “effect on PHA induced PBMC proliferation” value is “no suppression; also recorded: did not affect”. Also, the “effect on 14-3-3ζ-induced PBMC proliferation” value in assay [1] is given as “no effect; also recorded: did not show any difference”. In assay [2], the “effect on 14-3-3ζ-induced CD366 positive CD4 cells (Th1)” value (shortened to “effect … (Th1)”) is given as “no effect; also recorded: did not affect” and the “effect on 14-3-3ζ-induced IL-17 positive CD4 cells (Th17)” value (from here on “effect … (Th17)”) was “no effect; also recorded: did not affect”. In assay [3] (BV02 present), the “effect on PHA induced IFN-γ secreting cells” value was “did not affect” and the “effect on PHA induced IL-17 secretion” value is given as “partial inhibition”. In assay [3], the “effect on 14-3-3ζ-induced IFN-γ secreting cells” value is “did not show an increase; also recorded: significant inhibition” and the “effect on 14-3-3ζ-induced IL-17 secreting cells” value was “did not show an increase; also recorded: significant inhibition”.

On to `O=C(NN=Cc1c[nH]c2ccccc12)c1ccncc1` [TJU103], for which, in assay [1], the “effect on 14-3-3ζ-induced PBMC proliferation” value is reported as “did not inhibit”. For the same molecule, in assay [2], the “effect … (Th1)” value is “suppressed” and the “effect … (Th17)” value is reported as “suppressed”. Besides, in assay [3], the “effect on 14-3-3ζ-induced IFN-γ secreting cells” value is “stronger decrease; also recorded: suppressed; also recorded: Inhibition” and the “effect on 14-3-3ζ-induced IL-17 secreting cells” value is recorded as “less sensitive to inhibition”. In assay [3] (listed as TJU131), the “effect on 14-3-3ζ-induced IFN-γ secreting cells” value is “mild suppression” and the “effect on 14-3-3ζ-induced IL-17 secreting cells” value is “mild suppression”. In assay [4], the “effect on 14-3-3ζ-induced accumulated IL-17 level” value is “no difference” and the “effect on IL-6 level” value is recorded as “no difference”. The “effect on 14-3-3ζ-induced accumulated IL-17 level” value in assay [4] (listed as TJU131) is “no significant difference”.

For `O=P1(N(CCCl)CCCl)NCCCO1` (stereo not drawn) [cyclophosphamide], in assay [2], the “effect … (Th1)” value is recorded as “significant suppression; also recorded: mild inhibition” and the “effect … (Th17)” value is recorded as “only milder inhibition; also recorded: no sufficient inhibition; also recorded: no effect”. The “effect on 14-3-3ζ-induced IFN-γ secreting cells” value in assay [3] was “mild inhibition; also recorded: impacted only IFN-γ producing cells”.

As to `C[C@]12C=CC(=O)C=C1CC[C@@H]1[C@@H]2[C@@H](O)C[C@@]2(C)[C@H]1CC[C@]2(O)C(=O)CO` [prednisolone], in assay [2], the “effect … (Th1)” value is “mild effect” and the “effect … (Th17)” value is on record as “significant suppression; also recorded: strongly inhibited”. In addition, in assay [2] (listed as Prednisolone), the “effect … (Th1)” value is “suppressed” and the “effect … (Th17)” value is “suppressed”. Further, in assay [3], the “effect on 14-3-3ζ-induced IFN-γ secreting cells” value was “Significant suppression; also recorded: strong inhibition” and the “effect on 14-3-3ζ-induced IL-17 secreting cells” value is “significant suppression; also recorded: strong inhibition”. Besides, in assay [4], the “effect on 14-3-3ζ-induced accumulated IL-17 level” value is recorded as “Significant suppression; also recorded: reproduced effect on accumulated IL-17” and the “effect on IL-6 level” value is recorded as “bare minimum effect”.

For the molecule `C[C@]12C=CC(=O)C=C1CC[C@@H]1[C@@H]2C(=O)C[C@@]2(C)[C@H]1CC[C@]2(O)C(=O)CO` [prednisone], in assay [3], the “effect on 14-3-3ζ-induced IFN-γ secreting cells” value is “no effect” and the “effect on 14-3-3ζ-induced IL-17 secreting cells” value was “no effect”.

B1: 14-3-3ε: another 14-3-3 isoform, used for specificity and comparison (protein, UniProt P62258 1-255, looked up)
14-3-3 protein epsilon: MDDREDLVYQAKLAEQAERYDEMVESMKKVAGMDVELTVEERNLLSVAYKNVIGARRASWRIISSIEQKEENKGGEDKLKMIREYRQMVETELKLICCDILDVLDKHLIPAANTGESKVFYYKMKGDYHRYLAEFATGNDRKEAAENSLVAYKAASDIAMTELPPTHPIRLGLALNFSVFYYEILNSPDRACRLAKAAFDDAIAELDTLSEESYKDSTLIMQLLRDNLTLWTSDMQGDGEEQNKEALQDVEDENQ
In the case of B1, the “number of IFN-γ and IL-17 secreting cells” value in assay [5] (listed as 14-3-3e) is recorded as “not replaced”; in assay [5] (listed as 14-3-3 epsilon), “no significant effect”.
